# Experimental data from patent US20060039943A1, “Acetyl-CoA carboxylase inhibitors for use as pesticides” (Yissum Research Development Company fo the Hebrew University, priority 2003, published 2006).
# How the values were obtained:
# pheromone glands = assay: de novo pheromone production by isolated pheromone glands in vitro (radiolabel incorporation); format: cell-based, Helicoverpa (Heliothis) armigera; details: for inhibition of Hez-PBAN-activated sex pheromone production: Hez-PBAN 0.05 μM, inhibitor in μM range, FIG. 3
# Source text: (§1) Two distinct assay systems were applied in order to determine the inhibition of PBAN-induced pheromone production, elicited by aryloxyphenoxy propionates and cyclohexandione oximes such as diclofop, diclofop-methyl and tralkoxydim. The first assay monitors de novo pheromone production by isolated pheromone glands in vitro according to the method of Rafaeli and Gileadi^7 (Experimental Section). The second assay, monitors sex pheromone production in vivo by decapitated female moths that are incapable of pheromone production unless stimulated by PBAN (Experimental section).
# Intersegmental membranes (pheromone glands) between the eighth and ninth abdominal segments were removed from 2-3 day old virgin females. After 1 h preincubation in Pipes buffered incubation medium (pH 6.6), pheromone glands were dried on tissue paper and then transferred individually to 10 μl incubation medium containing 0.25 μCi [1-^14C]-acetate (56 mCi/mmole, NEN, Boston, USA) in the presence or absence of Hez-PBAN (Peninsula Labs, Belmont, Calif., USA) and in the additional presence or absence of either diclofop acid or diclofop methyl ester (FIG. 3).
# Incubations were performed for 3 h at room temperature. In order to measure the incorporation of radiolabel from [1-^14C] sodium acetate, the glands were extracted in 200 μl hexane for 0.5 h at room temperature and a 100 μl aliquot of the upper hexane phase was measured in a β-counter. Relative levels of incorporation into the pheromone component were determined using HPLC analysis as reported previously^9 using a Vydac C18 reversed phase column and a linear gradient from 40-55% acetonitrile. Fractions were collected every minute and radioactivity determined. The radioactive elution profile (shown in FIG. 8) was compared to known elution times of standard palmitic acid, Z11-hexadecenol and the main pheromone product of H. armigera^10, Z11-hexadecenal (Sigma, USA). In some experiments [1-^14C]-acetyl CoA (Amersham Pharmacia Biotech, UK.) or [9, 10-^3H]-palmitic acid (Life Science Products, Inc, Texas, USA) were substituted for [1-^14C]-acetate in order to measure relative incorporation into pheromone from these precursors. The effect of palmitoyl CoA (Sigma) was also tested in a different set of experiments using [^14C]-acetate as precursor (as shown in FIG. 2).
# ACCase enzyme = assay: Inhibition of ACCase (partially purified enzyme from pheromone glands); format: biochemical, Helicoverpa (Heliothis) armigera; details: in vitro, enzyme from pheromone producing tissue, FIG. 6
# Source text: The […] enzyme was extracted from pheromone glands separated on TMAE column and the eluted enzyme was used. Acetyl CoA was used as a substrate that requires HCO3^- where radiolabeled HCO3^- was used. In the presence of the enzyme, the substrate will be converted to radiolabeled malonyl CoA (see FIG. 1). Therefore, the difference in the level of incorporation of the radiolabeled malonyl CoA in the presence and absence of the […] enzyme was used to obtain the activity level of endogenous […] in the presence or absence of herbicides (FIG. 6).
# decapitated female moths = assay: sex pheromone production in vivo by decapitated female moths; parameters: species or system Helicoverpa (Heliothis) armigera; details: diclofop acid 10 μmol/female, PBAN 1 pmol/female, FIG. 7
# Source text: as §1
# In vivo sex pheromone production by female moths was determined in 2-day old females. The females were decapitated during the photophase of day 1 and subsequently maintained for an additional 24 h, after which they were injected with either physiological saline (control) or 1 pmol/moth Hez-PBAN in saline, and in the additional presence or absence of diclofop acid. Ovipositor tips (containing pheromone glands) were removed 2 h after injection and extracted for 10 min in hexane, containing 25 ng tridecanyl acetate (Sigma, USA) as internal standard. […] Z11-hexadecenal was quantified using the internal standard quantification methods as described previously^9.
# [1] = tested on: bees and beneficial insects; details: field conditions; cited from earlier work
compound,measurement,setting,value
CC(Oc1ccc(Oc2ccc(Cl)cc2Cl)cc1)C(=O)O (centres unmarked) [diclofop acid],inhibition of Hez-PBAN-activated sex pheromone production,pheromone glands; in vitro,significantly inhibits
same,inhibition of partially purified ACCase enzyme activity,ACCase enzyme,may inhibit directly
same,inhibition of in vivo synthesis of pheromone Z11-hexadecenal induced by PBAN,decapitated female moths,inhibited the production of the pheromone
same,toxicity to bees and beneficial insects,[1],relatively non-toxic
COC(=O)C(C)Oc1ccc(Oc2ccc(Cl)cc2Cl)cc1 (centres unmarked) [diclofop-methyl],inhibition of Hez-PBAN-activated sex pheromone production,pheromone glands; in vitro,significantly inhibits pheromone production to the same extent as the acid
CCCCCCCCCCCCCCCC(=O)O [palmitic acid],effect on the pheromonotropic action of PBAN,"pheromone glands; addition of palmitic acid, data not shown",did not affect
CCCCCCCCCCCCCCCC(=O)SCCNC(=O)CCNC(=O)[C@H](O)C(C)(C)COP(=O)(O)OP(=O)(O)OC[C@H]1O[C@@H](n2cnc3c(N)ncnc32)[C@H](O)[C@@H]1OP(=O)(O)O [palmitoyl-CoA],effect on production of pheromone,"pheromone glands; in vitro, 0.01 μM Hez-PBAN, 14C-acetate, FIG. 2",inhibiting its biosynthesis
CCO/N=C(\CC)C1=C(O)CC(c2c(C)cc(C)cc2C)CC1=O (centres unmarked) [tralkoxydim],concentration at which the inhibitory effect occurs,"pheromone glands; in vitro, Hez-PBAN 0.01 μM, FIG. 5",100 µM
